{
  "source": "patent US20100087496A1",
  "about": "“NOVEL CINNAMIC AMIDE DERIVATIVES USEFUL AS ION CHANNEL MODULATORS” (NeuroSearch A/S, priority 2006, published 2010)",
  "molecular_target": "T1, BK channels heterologously expressed in Xenopus laevis oocytes (Homo sapiens, UniProt Q12791)",
  "T1 construct": "expressed in transfected cells; host or cells: Xenopus laevis oocytes",
  "T1 sequence (Q12791 whole entry)": "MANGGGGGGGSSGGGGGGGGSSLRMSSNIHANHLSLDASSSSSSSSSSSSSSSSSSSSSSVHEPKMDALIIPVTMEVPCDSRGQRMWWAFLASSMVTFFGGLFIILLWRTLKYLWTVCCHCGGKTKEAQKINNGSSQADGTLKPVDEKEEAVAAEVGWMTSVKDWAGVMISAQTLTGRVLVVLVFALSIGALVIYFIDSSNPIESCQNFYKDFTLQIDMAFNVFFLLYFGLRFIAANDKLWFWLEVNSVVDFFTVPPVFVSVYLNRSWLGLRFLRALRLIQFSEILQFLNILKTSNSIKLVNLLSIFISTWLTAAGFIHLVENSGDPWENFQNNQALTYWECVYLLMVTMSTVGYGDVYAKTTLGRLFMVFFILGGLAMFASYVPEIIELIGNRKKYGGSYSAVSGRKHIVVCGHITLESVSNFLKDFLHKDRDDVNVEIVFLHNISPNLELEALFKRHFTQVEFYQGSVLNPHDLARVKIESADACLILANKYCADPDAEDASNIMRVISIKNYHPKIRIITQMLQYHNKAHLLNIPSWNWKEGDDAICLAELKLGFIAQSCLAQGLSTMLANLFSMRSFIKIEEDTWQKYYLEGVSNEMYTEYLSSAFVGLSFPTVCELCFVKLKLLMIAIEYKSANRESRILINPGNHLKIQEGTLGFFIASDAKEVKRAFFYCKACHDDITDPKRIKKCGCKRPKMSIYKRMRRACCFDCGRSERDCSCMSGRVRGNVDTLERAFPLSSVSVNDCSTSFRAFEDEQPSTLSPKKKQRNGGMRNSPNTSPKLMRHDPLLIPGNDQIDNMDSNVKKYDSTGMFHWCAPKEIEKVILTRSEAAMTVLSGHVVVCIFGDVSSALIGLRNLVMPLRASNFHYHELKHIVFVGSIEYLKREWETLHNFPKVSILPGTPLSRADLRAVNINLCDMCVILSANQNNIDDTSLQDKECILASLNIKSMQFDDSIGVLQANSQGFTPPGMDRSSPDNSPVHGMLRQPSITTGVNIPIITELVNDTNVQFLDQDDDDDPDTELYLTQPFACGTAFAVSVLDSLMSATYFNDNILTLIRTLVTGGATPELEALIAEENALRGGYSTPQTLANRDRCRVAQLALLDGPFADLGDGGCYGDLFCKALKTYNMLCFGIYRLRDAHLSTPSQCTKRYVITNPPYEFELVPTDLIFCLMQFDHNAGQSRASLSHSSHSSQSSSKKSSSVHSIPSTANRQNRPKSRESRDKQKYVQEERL",
  "assay": "BK channel opening activity, two-electrode voltage clamp in Xenopus laevis oocytes",
  "type": "cell-based",
  "conditions": "step from −40 mV to +30 mV",
  "method": "In this example the BK channel opening activity of three cinnamic amide derivatives representative of the invention, i.e. Compound 22 (A), Compound 9 (B) and Compound 19 (C), is determined using BK channels heterologously expressed in Xenopus laevis oocytes.\nThe electrical current through the BK channel is measured conventional two-electrode voltage clamp. BK current is activated by repeated step protocols. In brief, this protocol goes from a resting membrane potential of −40 mV lasting for 5 seconds to a depolarised step to +30 mV lasting for 1 second. The protocol was repeated continuously.\nHaving reached a stable current level, Compound A (3 μM), Compound B (1 μM) and Compound C (30 μM) was added.",
  "data": [
    {"smiles": "O=C(/C=C/c1ccc2ccccc2c1)Nc1cc(Cl)ccc1-c1nnn[nH]1", "note": "[Compound 9, (E)-N-[5-Chloro-2-(1H-tetrazol-5-yl)-3-phenyl]-3-naphthalen-2-yl-acrylamide]", "values": [
      {"measurement": "current activated by depolarisation (BK current)", "setting": "1 μM", "result": "marked increase"}
    ]},
    {"smiles": "O=C(/C=C/c1ccc2ccccc2c1)Nc1cc(Cl)ccc1S(=O)(=O)O", "note": "[Compound 19, 4-Chloro-2-((E)-3-naphthalen-2-yl-acryloylamino)-benzenesulfonic acid]", "values": [
      {"measurement": "current activated by depolarisation (BK current)", "setting": "30 μM", "result": "marked increase"}
    ]},
    {"smiles": "O=C(Nc1cc(Cl)ccc1-c1nnn[nH]1)C1=Cc2cc(Cl)ccc2OC1", "note": "[Compound 22, 6-Chloro-2H-chromene-3-carboxylic acid [5-chloro-2-(1H-tetrazol-5-yl)-phenyl]-amide]", "values": [
      {"measurement": "current activated by depolarisation (BK current)", "setting": "3 μM", "result": "marked increase"}
    ]}
  ]
}
